System: OCI-AML3 target cells
Assay: effect of TGF-beta and galunisertib on NK cell cytotoxicity (FIG. 11)
Format: cell-based
Settings: 72 hours, NK cells expanded with K562 mbIL-21, 5:1 NK:target
Protocol: NK cell cytotoxic function was assessed by measuring the number of live cells identified by calcein-AM (CAM) labeling. Target cells and NK cells were labeled with CAM (BD Pharmingen, San Jose, Calif.) and calcein-violet (CV) (eBioscience from ThermoFisher), respectively for approximately 15 minutes in the dark at room temperature. NK cells were co-incubated with target cells at the indicated ratios for 4 hours in triplicate at 37° C. in a tissue culture incubator with 5% CO2, and the samples were analyzed by flow cytometry (Attune NXT, Invitrogen) in 96 well plates. The CV-positive NK cells were gated out for analysis. Percent lysis was calculated according to the equation below: […]
Referring to FIG. 11, expanded NK cells (K562 cells expressing mbIL-21) were treated with TGF-beta (5 ng/mL), galunisertib, or a combination thereof for 72 hours. […] That drop can be rescued and reversed by co-administering NK cells with galunisertib (middle and right bars), in which case killing efficacy was improved by about 10%.

Cc1cccc(-c2nn3c(c2-c2ccnc4ccc(C(N)=O)cc24)CCC3)n1 [galunisertib]
improvement of killing efficacy: about 10%

Source: patent US12060577B2, “Compositions for expanding natural killer cells” (CASE WESTERN RESERVE UNIVERSITY, priority 2017, dated 2024)
